Data taken from publication PMC10683025, “Discovery of a Hydroxylamine-Based Brain-Penetrant EGFR Inhibitor for Metastatic Non-Small-Cell Lung Cancer” (Journal of Medicinal Chemistry, 2023).

Tests used:
[1] = molecular target: T1, ACVR1 (Homo sapiens, UniProt Q04771); experiment: KINOMEScan; type: binding; conditions: ACVR1, 1 µM; read-out: Percent Control
T1 construct: purchased Eurofins DiscoverX
From the text: (§1) Percent control was mapped onto the kinome tree using TREEspot.

[2] = molecular target: T2, AURKA (Homo sapiens, UniProt O14965); experiment: KINOMEScan; type: binding; conditions: read-out: Percent Control
T2 construct: purchased Eurofins DiscoverX (KINOMEscan)

[3] = molecular target: T3, AKT2 (Homo sapiens, UniProt P31751); experiment: KINOMEScan; type: binding; conditions: AKT2, 1 µM; read-out: Percent Control
T3 construct: purchased Eurofins DiscoverX (KINOMEscan)
From the text: as §1

[4] = molecular target: T4, CYP2C19 (Homo sapiens, UniProt P33261); experiment: CYP450 inhibition in human liver microsomes; type: in vitro ADME
T4 construct: tissue BD Gentest; host or cells: pooled human liver microsomes
Procedure: The activities tested were CYP1A2-mediated phenacetin O-demethylation, CYP2C19-mediated (S)-mephenyotin 4′-hydroxylation, CYP2C9-mediated diclofenac 4′-hydroxylation, CYP2D6-mediated dextromethorphan O-demethylation, and CYP3A4-mediated midazolam 1′-hydroxylation. […] The reactions were initiated by adding NADPH (1 mM final concentration) after a 5 min preincubation, and the assay was run in duplicate (n = 2). Samples were analyzed by ultra-performance liquid chromatography tandem mass spectrometry (UPLC-MS/MS).

[5] = molecular target: T5, ALK(C1156Y) (Homo sapiens, UniProt Q9UM73, C1156Y); experiment: KINOMEScan; type: binding; conditions: read-out: Percent Control
T5 construct: purchased Eurofins DiscoverX (KINOMEscan)
From the text: as §1

[6] = test system: HER2+ breast cancer cell lines; experiment: CellTiter-Glo cell viability assay; type: cell-based; conditions: Homo sapiens; range over cell lines; read-out: IC50's in HER2+ breast cancer cell lines
Procedure: The A431, HCC827, SK-BR-3, ZR-75–30, AU565, and Caco-2 cell lines were obtained from ATCC. The NCI-H1975 cell line was obtained from SIBS. The NCI-H3255 cell line was obtained from CoBioer. Engineered Ba/F3 cell lines were obtained from Crown Bioscience. MCKII-MDR1 cells were obtained from The Netherlands Cancer Institute. HEK293 cells were obtained from Invitrogen. A431 cells were cultured in DMEM (Life Technologies) with 10% FBS. HCC827, NCI-H1975, and AU565 cells were cultured in RPMI1640 (Invitrogen) with 10% FBS. NCI-H3255 cells were cultured in BEGM (Lonza) with 10% FBS. Ba/F3 EGFR-del E746_A750/C797S and Ba/F3 EGFR-L858R/C797S cells were cultured in RPMI (Invitrogen) with 10% FBS. SK-BR-3 cells were cultured in McCoy’s 5a (Invitrogen) with 10% FBS. ZR-75-30 cells were cultured in RPMI1640 (Invitrogen) with 20% FBS. Caco-2 and MCKII-MDR1 culture information is given in the Permeability Studies section. HEK293 cells were cultured in DMEM (Gibco) with 10% FBS, 0.1 mM NEAA, 25 mM HEPES, 100 U/mL penicillin-streptomycin, μg/mL blasticidin, and 400 μg/mL Geneticin. All cells were cultured in a humidified incubator with 5% CO2 at 37 °C.
Viability assays using A431, HCC827, NCI-H1975, NCI-H3255, Ba/F3 EGFR-del E746_A750/C797S, Ba/F3 EGFR-L858R/C797S, AU565, SK-BR-3, and ZR-75-30 cells were performed at Crown BioScience. Cells were plated into 96-well plates at 1500–7000 cells per well and dosed in triplicate (n = 3) in a nine-point, 4-fold dilution series with compounds (0.15 nM to 10 μM) in DMSO and incubated for 72 h. After 72 h, cell viability was assayed by CellTiter-Glo Luminescent Viability Assay (Promega). Dose–response curves were generated and used to calculate the IC50 values which were calculated on GraphPad Prism from the nonlinear regression equation fitted with a sigmoidal dose response and are presented as mean ± SEM.

[7] = Metabolic stability in hepatocytes; type: in vitro ADME, beagle dog; conditions: for Remaining Percentages: dog hepatocytes
Procedure: Hepatocyte stability was assessed in duplicate (n = 2) at a working cell density of 0.5 × 10^6 cells/mL with hepatocytes from human (BiolVT), Sprague-Dawley rat (BiolVT), cynomolgus monkey (RILD) or beagle dog (BiolVT). […] The in vitro half-life and intrinsic clearances were determined as previously described.[76]
In vitro half-life (in vitro t1/2) was determined from the slope value in [drawing 1] where k was determined by linear regression of the natural logarithm of the remaining percentage of the parent drug vs the incubation time curve.

[8] = Pharmacokinetic study; type: in vivo, BALB/c nude mice
Procedure: Animal experiments were performed at Pharmaron, Inc. and animal use was approved by Pharmaron’s Institutional Animal Care and Use Committee (IACUC) in Pharmaron (Pharmaron IACUC, Protocol #PK-M-07182022, #PK-R-06012022, and #ON-CELL-XEN-06012022) following the guidance of AAALAC. Six- to eight-week-old male Sprague-Dawley rats (approximately 200–300 g) obtained from Si Bei Fu Laboratory Animal Technology Co., six- to eight-week-old male CD1 mice (approximately 20–30 g) obtained from Si Bei Fu Laboratory Animal Technology Co., and six- to eight-week-old female BALB/c nude mice (approximately 20–30 g) obtained from Si Bei Fu Laboratory Animal Technology Co., were used in the pharmacokinetic studies. Six- to eight-week-old female BALB/c nude mice (approximately 18–22 g) obtained from Beijing Anikeeper Biotech Co., Ltd. were used in the intracranial PDX study. Animals were housed at 20–25 °C with humidity ranging from 40 to 70% relative humidity, were exposed to 12 h light and dark cycles, and were supplied with food and water ab libitum.
Approximately 0.03 mL of blood was collected from the dorsal metatarsal vein (in the case of CD1 mice), 0.03 mL of blood from the orbit vein (in the case of BALB/c nude mice), or 0.2 mL of blood from the jugular vein (in the case of Sprague-Dawley rats) at each time point. Blood at each sampling point was transferred into a plastic micro centrifuge tube containing K2-EDTA, and collection tubes with blood samples and anticoagulant were inverted several times for proper mixing of the tube contents and placed on ice prior to centrifugation for plasma. Blood samples were centrifuged at 4 °C, 4000g for 5 min to obtain plasma. Samples were stored in a freezer at −75 °C prior to analysis. Concentrations of test articles in the plasma samples were determined using LC-MS/MS and WinNonlin 8.3 (Phoenix) was used for pharmacokinetic calculations. The values obtained were plotted on GraphPad Prism software and are presented as mean ± SD.

[9] = molecular target: T6, AAK1 (Homo sapiens, UniProt Q2M2I8); experiment: KINOMEScan; type: binding; conditions: AAK1, 1 µM; read-out: Percent Control
T6 construct: purchased Eurofins DiscoverX
From the text: as §1

[10] = In vitro metabolite identification; type: in vitro ADME; conditions: rat hepatocytes, 10 μM
[11] = molecular target: T7, WEE1 (Homo sapiens, UniProt P30291); experiment: KINOMEScan; type: binding; conditions: WEE1, 1 µM; read-out: Percent Control
T7 construct: purchased Eurofins DiscoverX
From the text: as §1

[12] = female, BALB/c nude, plasma, Mouse 3 mg/kg (IV)
[13] = female, BALB/c nude, plasma, Mouse 30 mg/kg (PO)

T4 sequence (P33261 whole entry): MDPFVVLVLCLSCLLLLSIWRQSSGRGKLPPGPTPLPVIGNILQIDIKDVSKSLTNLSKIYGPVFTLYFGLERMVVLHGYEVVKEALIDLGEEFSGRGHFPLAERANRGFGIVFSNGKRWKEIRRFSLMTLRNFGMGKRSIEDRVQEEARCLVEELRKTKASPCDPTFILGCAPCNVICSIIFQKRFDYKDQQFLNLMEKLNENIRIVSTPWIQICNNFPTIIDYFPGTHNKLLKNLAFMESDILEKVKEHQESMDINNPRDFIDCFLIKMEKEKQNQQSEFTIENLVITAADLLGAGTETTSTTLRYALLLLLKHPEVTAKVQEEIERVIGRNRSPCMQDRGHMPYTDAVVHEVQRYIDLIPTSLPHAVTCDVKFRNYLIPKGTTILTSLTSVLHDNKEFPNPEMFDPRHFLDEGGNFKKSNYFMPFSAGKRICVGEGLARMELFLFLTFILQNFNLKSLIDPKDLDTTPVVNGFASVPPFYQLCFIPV
T1 sequence (Q04771 21-509): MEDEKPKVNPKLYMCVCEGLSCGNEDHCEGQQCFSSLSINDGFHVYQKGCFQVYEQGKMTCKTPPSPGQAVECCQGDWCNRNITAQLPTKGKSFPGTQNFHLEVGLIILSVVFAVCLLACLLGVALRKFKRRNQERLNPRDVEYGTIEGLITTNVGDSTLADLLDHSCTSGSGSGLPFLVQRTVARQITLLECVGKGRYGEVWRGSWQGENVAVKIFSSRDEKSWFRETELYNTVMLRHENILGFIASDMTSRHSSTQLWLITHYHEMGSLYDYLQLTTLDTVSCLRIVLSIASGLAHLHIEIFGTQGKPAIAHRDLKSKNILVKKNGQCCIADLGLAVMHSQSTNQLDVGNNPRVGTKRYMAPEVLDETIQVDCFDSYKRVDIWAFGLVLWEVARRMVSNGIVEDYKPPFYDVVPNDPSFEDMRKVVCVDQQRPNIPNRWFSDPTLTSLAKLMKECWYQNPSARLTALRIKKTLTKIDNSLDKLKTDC
T7 sequence (P30291 whole entry): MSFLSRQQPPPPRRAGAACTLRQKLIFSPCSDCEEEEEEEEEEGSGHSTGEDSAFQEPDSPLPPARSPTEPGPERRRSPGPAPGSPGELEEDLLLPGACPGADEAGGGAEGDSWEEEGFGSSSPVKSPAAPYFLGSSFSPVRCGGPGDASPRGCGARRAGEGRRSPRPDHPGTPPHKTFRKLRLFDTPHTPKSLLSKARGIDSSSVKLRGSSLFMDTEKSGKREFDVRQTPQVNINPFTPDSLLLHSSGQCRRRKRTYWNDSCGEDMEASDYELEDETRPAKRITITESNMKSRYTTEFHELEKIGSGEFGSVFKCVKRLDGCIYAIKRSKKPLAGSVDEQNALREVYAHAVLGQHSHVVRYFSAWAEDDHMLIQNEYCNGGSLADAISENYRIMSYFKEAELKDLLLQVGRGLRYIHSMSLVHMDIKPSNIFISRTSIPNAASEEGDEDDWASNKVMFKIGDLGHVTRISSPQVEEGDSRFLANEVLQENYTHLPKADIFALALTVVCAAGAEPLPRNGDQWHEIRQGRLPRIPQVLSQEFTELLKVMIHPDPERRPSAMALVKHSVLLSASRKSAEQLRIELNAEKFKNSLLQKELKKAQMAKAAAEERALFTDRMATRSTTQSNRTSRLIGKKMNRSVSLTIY
T2 sequence (O14965 whole entry): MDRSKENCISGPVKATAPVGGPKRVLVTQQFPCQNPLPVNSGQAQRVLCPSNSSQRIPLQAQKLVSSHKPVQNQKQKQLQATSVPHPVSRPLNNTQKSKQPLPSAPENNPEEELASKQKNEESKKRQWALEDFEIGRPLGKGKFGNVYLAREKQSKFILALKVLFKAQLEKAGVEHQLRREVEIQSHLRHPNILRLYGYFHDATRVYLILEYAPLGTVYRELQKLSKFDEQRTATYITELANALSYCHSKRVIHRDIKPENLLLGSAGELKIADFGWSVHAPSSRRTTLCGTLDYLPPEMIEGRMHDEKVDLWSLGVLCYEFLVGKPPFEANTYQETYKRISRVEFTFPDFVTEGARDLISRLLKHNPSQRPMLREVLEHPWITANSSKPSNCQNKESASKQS
T3 sequence (P31751 whole entry): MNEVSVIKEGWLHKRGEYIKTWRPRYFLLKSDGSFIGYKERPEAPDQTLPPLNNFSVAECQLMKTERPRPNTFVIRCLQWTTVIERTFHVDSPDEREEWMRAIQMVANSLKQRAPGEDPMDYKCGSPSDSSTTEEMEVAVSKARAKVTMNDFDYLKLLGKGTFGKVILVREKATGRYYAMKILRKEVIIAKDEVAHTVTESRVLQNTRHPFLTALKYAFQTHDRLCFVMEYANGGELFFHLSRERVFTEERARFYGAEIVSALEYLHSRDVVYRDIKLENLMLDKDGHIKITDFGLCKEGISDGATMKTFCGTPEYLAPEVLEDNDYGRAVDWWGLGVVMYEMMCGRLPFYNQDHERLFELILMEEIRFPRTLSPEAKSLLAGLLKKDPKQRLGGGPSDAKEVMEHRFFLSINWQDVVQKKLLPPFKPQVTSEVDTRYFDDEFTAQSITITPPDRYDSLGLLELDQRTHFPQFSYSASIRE
T6 sequence (Q2M2I8 whole entry): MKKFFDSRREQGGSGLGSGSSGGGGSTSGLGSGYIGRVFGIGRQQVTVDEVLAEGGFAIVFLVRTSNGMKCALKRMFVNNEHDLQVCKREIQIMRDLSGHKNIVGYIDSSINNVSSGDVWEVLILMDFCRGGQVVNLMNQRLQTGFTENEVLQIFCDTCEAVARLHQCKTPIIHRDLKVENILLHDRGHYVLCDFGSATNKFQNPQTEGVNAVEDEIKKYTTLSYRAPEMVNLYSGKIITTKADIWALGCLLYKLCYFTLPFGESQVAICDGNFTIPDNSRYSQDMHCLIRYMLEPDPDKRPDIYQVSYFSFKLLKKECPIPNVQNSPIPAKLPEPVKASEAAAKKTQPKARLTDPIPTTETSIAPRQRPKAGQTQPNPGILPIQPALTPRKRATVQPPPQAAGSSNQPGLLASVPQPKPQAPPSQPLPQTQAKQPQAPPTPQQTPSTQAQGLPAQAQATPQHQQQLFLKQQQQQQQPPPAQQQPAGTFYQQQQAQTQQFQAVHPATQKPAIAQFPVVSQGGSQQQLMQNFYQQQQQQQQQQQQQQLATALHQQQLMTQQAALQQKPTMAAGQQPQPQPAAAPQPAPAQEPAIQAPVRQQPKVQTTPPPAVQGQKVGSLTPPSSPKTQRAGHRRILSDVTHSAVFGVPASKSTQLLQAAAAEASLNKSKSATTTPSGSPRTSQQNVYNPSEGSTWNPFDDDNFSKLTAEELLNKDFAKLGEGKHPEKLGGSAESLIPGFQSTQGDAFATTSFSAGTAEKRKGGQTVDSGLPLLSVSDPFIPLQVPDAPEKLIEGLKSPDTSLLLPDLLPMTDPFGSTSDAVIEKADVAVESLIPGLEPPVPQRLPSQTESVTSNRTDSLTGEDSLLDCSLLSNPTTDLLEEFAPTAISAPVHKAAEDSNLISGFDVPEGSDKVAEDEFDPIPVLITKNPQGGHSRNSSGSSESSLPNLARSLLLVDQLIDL
T5 sequence (Q9UM73 19-1620 C1156Y): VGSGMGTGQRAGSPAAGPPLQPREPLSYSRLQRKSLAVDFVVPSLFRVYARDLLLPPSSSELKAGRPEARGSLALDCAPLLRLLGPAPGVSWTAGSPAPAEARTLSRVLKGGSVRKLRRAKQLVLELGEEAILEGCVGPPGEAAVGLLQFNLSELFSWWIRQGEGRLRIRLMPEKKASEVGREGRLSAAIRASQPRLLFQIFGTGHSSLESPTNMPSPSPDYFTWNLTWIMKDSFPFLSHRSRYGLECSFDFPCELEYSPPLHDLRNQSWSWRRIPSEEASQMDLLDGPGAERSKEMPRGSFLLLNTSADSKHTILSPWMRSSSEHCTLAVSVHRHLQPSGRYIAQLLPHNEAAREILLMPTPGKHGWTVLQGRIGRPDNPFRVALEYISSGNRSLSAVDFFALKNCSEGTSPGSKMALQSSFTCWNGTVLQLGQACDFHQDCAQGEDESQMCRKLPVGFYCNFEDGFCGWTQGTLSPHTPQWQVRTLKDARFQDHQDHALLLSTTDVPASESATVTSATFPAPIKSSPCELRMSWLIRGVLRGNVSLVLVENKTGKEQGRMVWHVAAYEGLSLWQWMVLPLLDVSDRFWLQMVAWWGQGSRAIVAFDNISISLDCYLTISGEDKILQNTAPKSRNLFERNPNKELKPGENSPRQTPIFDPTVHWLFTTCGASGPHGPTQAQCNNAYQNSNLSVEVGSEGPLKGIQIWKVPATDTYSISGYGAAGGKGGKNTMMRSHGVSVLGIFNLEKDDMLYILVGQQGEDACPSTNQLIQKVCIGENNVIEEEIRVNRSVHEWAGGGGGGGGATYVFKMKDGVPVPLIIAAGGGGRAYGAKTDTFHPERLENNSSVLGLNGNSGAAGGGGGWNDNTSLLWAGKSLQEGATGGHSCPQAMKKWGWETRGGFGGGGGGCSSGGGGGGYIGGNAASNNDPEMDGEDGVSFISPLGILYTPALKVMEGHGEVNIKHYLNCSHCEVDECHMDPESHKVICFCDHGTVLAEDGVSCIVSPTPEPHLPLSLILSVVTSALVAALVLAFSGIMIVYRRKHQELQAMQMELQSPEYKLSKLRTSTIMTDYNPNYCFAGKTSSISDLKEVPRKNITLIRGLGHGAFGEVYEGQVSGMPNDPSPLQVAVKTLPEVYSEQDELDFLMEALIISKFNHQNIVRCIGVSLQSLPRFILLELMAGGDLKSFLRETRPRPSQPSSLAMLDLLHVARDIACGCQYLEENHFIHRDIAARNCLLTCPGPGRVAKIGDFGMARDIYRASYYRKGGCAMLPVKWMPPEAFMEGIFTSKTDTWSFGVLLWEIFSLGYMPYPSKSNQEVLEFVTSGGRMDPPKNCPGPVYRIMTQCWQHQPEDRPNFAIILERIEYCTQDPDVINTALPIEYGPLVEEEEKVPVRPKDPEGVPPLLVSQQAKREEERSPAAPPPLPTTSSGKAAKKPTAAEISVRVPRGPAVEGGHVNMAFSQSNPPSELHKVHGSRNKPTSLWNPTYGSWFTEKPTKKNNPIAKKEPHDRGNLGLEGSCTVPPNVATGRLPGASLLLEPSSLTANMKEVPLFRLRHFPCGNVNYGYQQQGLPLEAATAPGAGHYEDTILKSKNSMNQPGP

COc1cc2ncnc(Nc3cccc(Cl)c3F)c2cc1OCCON1CCN(C)CC1 [Compound 9, N-(3-Chloro-2-fluorophenyl)-7-methoxy-6-(2-((4-methylpiperazin-1-yl)oxy)ethoxy)quinazolin-4-amine]
remaining binding at 1 µM [1]: 100% | remaining binding at 1 µM [2]: 75% | remaining binding at 1 µM [3]: 91% | IC50 [4]: > 30 µM | remaining binding at 1 µM [5]: 100% | IC50 [6]: 0.99 to 1.6 µM | hepatocyte CLint at 2 h, 1 µM ([7]; beagle, dog, hepatocytes): 13 µL/min/1e6 cells | Remaining Percentages ([7]; 15 min): 88.01% | Remaining Percentages ([7]; 30 min): 79.61% | Remaining Percentages ([7]; 60 min): 68.74% | Remaining Percentages ([7]; 90 min): 60.01% | Remaining Percentages ([7]; 120 min): 41.31% | plasma level at the 24 h time point ([8]; 30 mg/kg PO, BALB/c nude mice): no compound was detected | clearance [8, 12]: 58.6 ± 8.7 mL/min/kg | half-life at 24 h [8, 12]: 1.67 ± 0.12 h | Vd at 24 h ([8]; female, BALB/c nude, plasma, Mouse 3 mg/kg (IV), read-out: Vss): 4.68 ± 0.54 L/kg | Cmax at 24 h [8, 13]: 2180 ± 66 nM | Tmax at 24 h [8, 13]: 0.42 ± 0.14 h | bioavailability at 24 h [8, 13]: 61% | half-life at 24 h [8, 13]: 1.84 ± 0.62 h | remaining binding at 1 µM [9]: 92% | share of parent/metabolite after incubation of 9 [10]: 1.11% | remaining binding at 1 µM [11]: 100%
